Where “and” joins values, the source holds several entries; their conditions need not be identical. Equal values may be shown once. Read-outs that look alike come from different tables or passages of the source.
Tests used:
[1] = tested on: P. falciparum K1; experiment: Time course of inhibitory activity, microscopy of synchronized parasites; assay type: cell-based, Plasmodium falciparum; conditions: 10 times IC50 of 3D7 applied to K1; 0, 12, 24, 36 h
Method: The time course of inhibitory activity of the CQ analogues was also evaluated. The compounds were incubated at a concentration 10 times higher than the IC50 values obtained for the P. falciparum 3D7 sensitive strain with synchronized parasites. Morphological changes were then observed by microscopy after 0, 12, 24 and 36 hours after synchronization (FIG. 3). Parasites sensitive (3D7 strain) and resistant (K1 strain) to CQ were tested in parallel, and the antimalarial CQ was used as a control.

[2] = tested on: Indochina I; conditions: resistant strain Indochina I; verapamil; cited from earlier work
[3] = tested on: P. falciparum 3D7; experiment: Antiplasmodial SYBR Green assay, CQ-sensitive strain; assay type: cell-based, Plasmodium falciparum; conditions: for IC50: Plasmodium falciparum; for Selectivity index 3D7: ratio between MDL50 and IC50, 3D7
Method: Each test was performed in triplicate in at least two different experiments.
(§1) Briefly, plates were centrifuged at 700 g for 5 min in room temperature to remove medium, washed with PBS, and incubated for 30 min with lysis buffer solution and SYBR Green I DNA dye (1:20000). The fluorescence of the uninfected erythrocytes was considered as background.
(§2) The half maximum inhibitory concentration of the drug (IC50) was estimated by curve fitting using software and compared with the parasite growth in the compound-free medium.

[4] = tested on: P. berghei NK65; experiment: P. berghei suppression test in mice; assay type: in vivo; conditions: for Parasitemia % reduction day 5 / Parasitemia % reduction day 7 / Parasitemia % reduction day 9 / Parasitemia % reduction day 11 / Parasitemia % reduction day 13 / Parasitemia % reduction day 15: three days, relative to untreated mice; for Survival of mice compared to the untreated control: Mann-Whitney test
Method: A P. berghei NK65 strain was obtained as a donation from New York University and maintained through weekly blood draws.
On days 5 to 15 after parasite inoculation, blood was taken from the tail of each mouse and used to prepare thin smears that were fixed with methanol, stained with Giemsa and examined microscopically (1000×) to determine parasitemia.
Parasite growth inhibition was determined relative to parasitemia in the untreated mice, considered to be 100% parasite growth. […] The experiments were performed twice.

[5] = tested on: P. falciparum K1; experiment: Antiplasmodial SYBR Green assay, multiresistant strain; assay type: cell-based, Plasmodium falciparum; conditions: for IC50: Plasmodium falciparum; for Antiplasmodial activity: K1 resistant strain, highest dose 10 μM; for Selectivity index K1: ratio between MDL50 and IC50, K1
Method: Freshly synchronized sorbitol ring stages (Lambros and Vanderberg, 1979) were immediately incubated with the test compounds at various concentrations (10-0.152 μM or 1.0-0.0152 μM) previously solubilized in 0.05% dimethyl sulfoxide (DMSO) (v/v). Each test was performed in triplicate in at least two different experiments.
The antiplasmodial activity of the compounds was measured by DNA labeling assay using the fluorescent probe SYBR Green (Smilkstein et al., 2004).
as §1, with “background. Fluorescence was measured in a fluorimeter at 485/535 nm.” for “background.”
as §2

[6] = tested on: β-hematin formation; experiment: Inhibition of β-hematin formation (lipid-catalysed heme crystallization); assay type: biochemical
Method: Briefly, drug stock solutions were prepared in DMSO, used at a final concentration of up to 30 mM A heme stock (10 mM) was made in DMSO and diluted to […] with 100 mM sodium acetate (pH 4.8).
The plates were incubated at 37° C. for 2 h to allow crystallization, followed by the addition of 100 μL of 200 mM sodium bicarbonate (pH 9.1) to solubilize any remaining monomeric heme. After incubation for 30 min at room temperature, the amount of solubilized monomeric heme was determined by measuring the absorbance at 405 nm.
Finally, 20 μL of 1 M sodium hydroxide was added to the plates to dissolve the crystals formed. The absorbance was read at 405 nm to determine the total amount of heme present in each well.
The inhibition of heme crystallization was determined as a function of the amount of monomeric heme that was not crystallized divided by the total amount of heme present in the test mixture. The results are expressed as IC50 values based on the percentage inhibition of β-hematin formation by compounds GIQ, CEQ, PCQ and DAQ. Each test was performed in triplicate in at least two different experiments.

[7] = tested on: BGM-VN; experiment: Cytotoxicity, MTT assay; assay type: cell-based; conditions: 24 h incubation
Method: The compounds (20 μL) at various concentrations (400-1.0 μM) were placed in the 96-well plates, incubated with the cultured cells for 24 h under a 5%CO2 atmosphere at 37° C., and then a 3-(4,5-dimethylthiazol-2-yl)-2,5-diphenyltetrazolium bromide (MTT) solution ([…]; 20 μL/well for 3 h) was used to assess mitochondrial viability.
The supernatants were carefully removed and 100 μL of DMSO was added to each well and mixed to solubilize the formazan crystals. The optical density was determined at 570 nm. Cell viability was expressed as the percentage of the control absorbance in the untreated cells after subtracting the appropriate background. Each test was performed in triplicate in at least two different experiments.

[8] = tested on: CQ-resistant strains; conditions: prior art; cited from earlier work
[9] = 3D7, read-out: IC50 (nM ± SD) P.falciparum 3D7
[10] = CQ 20 mg/kg, daily for three days
[11] = K1, read-out: IC50 (nM ± SD) P.falciparum K1
[12] = CQ-sensitive strain 3D7, SYBR Green, ± SD, read-out: IC50 (nM ± SD) P.falciparum 3D7
[13] = multiresistant strain K1, SYBR Green, ± SD, read-out: IC50 (nM ± SD) P.falciparum K1
[14] = 50 mg/kg orally, daily for three days

Row | Structure (SMILES) | IC50 [3, 9] | IC50 [5, 11] | Selectivity index 3D7 [3] | Selectivity index K1 [5] | MLD50 (μM) BGM-VN [7] | Survival [4, 14] | Survival of mice compared to the untreated control ([4]; 50 mg/kg orally) | Parasitemia day 5 [4, 14] | Parasitemia day 7 [4, 14] | Parasitemia % reduction day 7 ([4]; 50 mg/kg orally) | Parasitemia day 9 [4, 14] | Parasitemia % reduction day 9 ([4]; 50 mg/kg orally) | Parasitemia day 11 [4, 14] | Parasitemia % reduction day 11 ([4]; 50 mg/kg orally) | Parasitemia day 13 [4, 14] | Parasitemia % reduction day 13 ([4]; 50 mg/kg orally) | Parasitemia day 15 [4, 14] | Parasitemia % reduction day 15 ([4]; 50 mg/kg orally) | other results
1 | CCN(CC)CCCC(C)Nc1ccnc2cc(Cl)ccc12 (stereo not shown) [CQ, chloroquine, reference compound] | 36 ± 12 nM | 177 ± 20 nM |  |  |  |  |  |  |  |  |  |  |  |  |  |  |  |  | Time course / stage of action, morphology [1]: did not block complete parasite development; Improvement of IC50 after PfCRT inhibition [2]: 10 ×; Parasitemia until the last day of evaluation ([4]; CQ 20 mg/kg): did not show parasitemia; Survival ([4]; CQ 20 mg/kg): survived until the last day of the experiment; Survival [4, 10]: >30; Parasitemia day 5 [4, 10]: 0.00; Parasitemia % reduction day 5 ([4]; CQ 20 mg/kg): 100%; Parasitemia day 7 [4, 10]: 0.00; Parasitemia % reduction day 7 ([4]; CQ 20 mg/kg): 100%; Parasitemia day 9 [4, 10]: 0.00; Parasitemia % reduction day 9 ([4]; CQ 20 mg/kg): 100%; Parasitemia day 11 [4, 10]: 0.00; Parasitemia % reduction day 11 ([4]; CQ 20 mg/kg): 100%; Parasitemia day 13 [4, 10]: 0.00; Parasitemia % reduction day 13 ([4]; CQ 20 mg/kg): 100%; Parasitemia day 15 [4, 10]: 0.00; Parasitemia % reduction day 15 ([4]; CQ 20 mg/kg): 100%
2 | O=C(O)CNc1ccnc2cc(Cl)ccc12 [GIQ] |  |  | Inactive | Inactive | >1000 µM |  |  |  |  |  |  |  |  |  |  |  |  |  | β-hematin inhibition, comparison [6]: least potent; Antiplasmodial activity ([3]; 3D7, highest dose 10 μM): inactive; IC50 [3, 12]: > 10000 nM; Antiplasmodial activity [5]: inactive; IC50 [5, 13]: > 10000 nM
3 | CCN(CC)CC#CCNc1ccnc2cc(Cl)ccc12 [DAQ] | 46 ± 4 nM | 50 ± 3 nM | 32195 | 29620 | 1481 ± 39 µM | 28 ± 1 | significantly higher | 0.00 | 0.00 | 100% | 0.00 | 100% | 0.00 | 100% | 0.77 | 92% | 3.67 | 82% | β-hematin inhibition, comparison [6]: lower than that of CQ; Selectivity index (SI) quoted in text ([3]; strain not stated): 55.750; Parasitemia % reduction day 5 ([4]; 50 mg/kg orally): 100%; Antiplasmodial activity [5]: active
4 | CCN(CC)Cc1cc(Nc2ccnc3cc(Cl)ccc23)ccc1O [AQ] |  |  |  |  |  |  |  |  |  |  |  |  |  |  |  |  |  |  | Activity against CQ-resistant strains (literature, words) [8]: cross-resistance with CQ
5 | CCN(CC)CCCNc1ccnc2cc(Cl)ccc12 [AQ-13] |  |  |  |  |  |  |  |  |  |  |  |  |  |  |  |  |  |  | Activity against CQ-resistant strains (literature, words) [8]: shows antimalarial activity
6 | NCCNc1ccnc2cc(Cl)ccc12 [CEQ] |  |  | 655 |  | 179 ± 40 µM | 26 ± 6 | significantly higher | 0.00 | 0.00 | 100% | 0.00 | 100% | 0.00 | 100% | 0.57 | 94% | 4 | 80% | IC50 [3, 12]: 273 ± 12 nM; Parasitemia % reduction day 5 ([4]; 50 mg/kg orally): 100%; IC50 [5, 13]: 218 ± 44 nM
7 | C#CCNc1ccnc2cc(Cl)ccc12 [PCQ] | 377 ± 14 nM | 405 ± 32 nM | 1079 | 1005 | 407 ± 185 µM | 17 ± 8 | not increased | 1.04 | 4.83 | 10% | 5.75 | 8% | 7.5 | 32% | 7.0 | 32% | 34.5 | 0% | Parasitemia % reduction day 5 ([4]; 50 mg/kg orally, 50 mg/kg): 70% and 73%

Source: patent US12570608B2, “Compound derived from quinoline, use of a compound, composition and method for the treatment or prophylaxis of a condition caused by a blood parasite” (FUNDÃÇAO OSWALDO CRUZ, priority 2019, dated 2026)
